In the supplement of paper PMC10307832:

Key:
Assay in all cases: relative viability (nuclei count vs DMSO), 5 days (fraction); higher = more cells survive
[1] = compound: C1=CC2=C(C=CC(=C2)C=C3C(=O)NC(=NCC4=CC=CS4)S3)N=C1 [RO-3306] + CCNC(=O)c1noc(-c2cc(C(C)C)c(O)cc2O)c1-c1ccc(CN2CCOCC2)cc1 [Luminespib] (partner 0.01 µM)
Summary of the method: (§1)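 Cells from lung cancer lines were seeded into 1536-well plates and, one day later, dosed by pin tool. Treatments were either a single drug or a fixed dose of an anchor drug with five library-drug doses (not always all listed) in √10 steps. After 5 days, nuclei were stained in a one-step fixation (final 0.05% Triton X-100, 1% formaldehyde, 1 ug/ml Hoechst) and counted on 4× images, and relative viability is the treated-to-vehicle nuclei ratio, as the median of duplicate plates.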

[2] = compound: O=S(=O)(c1ccccc1)N(CC(F)(F)F)c1ccc(C(O)(C(F)(F)F)C(F)(F)F)cc1 + Nc1nc2[nH]cc(CCc3ccc(C(=O)N[C@@H](CCC(=O)O)C(=O)O)cc3)c2c(=O)[nH]1 [Pemetrexed] (partner 0.2 µM)
Summary of the method: as §1

[3] = compound: C1=CC2=C(C=CC(=C2)C=C3C(=O)NC(=NCC4=CC=CS4)S3)N=C1 [RO-3306] + N=C(N)NC(=N)NCCc1ccccc1 [Phenformin] (partner 250 µM)
Summary of the method: as §1

[4] = compound: O=S(=O)(c1ccccc1)N(CC(F)(F)F)c1ccc(C(O)(C(F)(F)F)C(F)(F)F)cc1 + N=C(N)NC(=N)NCCc1ccccc1 [Phenformin] (partner 250 µM)
Summary of the method: as §1

[5] = compound: O=S(=O)(c1ccccc1)N(CC(F)(F)F)c1ccc(C(O)(C(F)(F)F)C(F)(F)F)cc1 + COc1cccc2cc(-c3nc([C@H]4CC[C@H](C(=O)O)CC4)n4ncnc(N)c34)[nH]c12 [OSI-027] (partner 0.5 µM)
Summary of the method: as §1

Cell Line | relative viability ([1]; first compound 0.01 µM) | relative viability ([1]; first compound 0.03162 µM) | relative viability ([1]; first compound 0.1 µM) | relative viability ([1]; first compound 0.3162 µM) | relative viability ([1]; first compound 1 µM) | relative viability ([2]; first compound 2.53 µM) | relative viability ([2]; first compound 8 µM) | relative viability ([3]; first compound 0.01 µM) | relative viability ([3]; first compound 0.03162 µM) | relative viability ([3]; first compound 0.1 µM) | relative viability ([3]; first compound 0.3162 µM) | relative viability ([3]; first compound 1 µM) | relative viability ([4]; first compound 0.8 µM) | relative viability ([4]; first compound 2.53 µM) | relative viability ([4]; first compound 8 µM) | relative viability ([5]; first compound 0.8 µM) | relative viability ([5]; first compound 2.53 µM) | relative viability ([5]; first compound 8 µM) | relative viability ([2]; first compound 0.8 µM)
NCI-H358 | 0.408 | 0.292 | 0.376 | 0.316 | 0.229 | 0.177 | 0.181 | 0.363 | 0.265 | 0.282 | 0.289 | 0.239 | 0.265 | 0.236 | 0.261 | 0.743 | 0.751 | 0.543 | –
NCI-H1734 | 0.168 | 0.172 | 0.205 | 0.195 | 0.171 | 0.431 | 0.422 | 0.355 | 0.276 | 0.344 | 0.409 | 0.368 | 0.562 | 0.45 | 0.354 | 0.708 | 0.55 | 0.637 | 0.438
NCI-H2087 | 0.196 | 0.175 | 0.149 | 0.23 | 0.17 | 0.593 | 0.633 | 0.526 | 0.332 | 0.423 | 0.489 | 0.372 | 0.512 | 0.456 | 0.341 | 0.6 | 0.487 | 0.622 | 0.459
NCI-H460 | 0.033 | 0.029 | 0.0336 | 0.0289 | 0.0305 | 0.0599 | 0.0652 | 0.635 | 0.365 | 0.496 | 0.555 | 0.544 | 0.613 | 0.469 | 0.451 | 0.882 | 0.699 | 0.723 | 0.0543
NCI-H1793 | 0.129 | 0.162 | 0.195 | 0.205 | 0.191 | 0.587 | 0.806 | 0.346 | 0.347 | 0.397 | 0.366 | 0.315 | 0.447 | 0.332 | 0.285 | 0.292 | 0.188 | 0.207 | 0.792
A-427 | 0.94 | 0.867 | 0.928 | 0.884 | 1 | 0.937 | 1.05 | 0.339 | 0.241 | 0.312 | 0.295 | 0.243 | 0.286 | 0.254 | 0.326 | 0.434 | 0.479 | 0.676 | 0.939
